From the Kinase Knowledgebase extract (Sharma et al. 2016)

Biological target: MAPK14 (UniProt Q16539)
Assay: Inhibition of MAPK14 Kinase Activity

Sequence of MAPK14 (Q16539 whole entry, looked up): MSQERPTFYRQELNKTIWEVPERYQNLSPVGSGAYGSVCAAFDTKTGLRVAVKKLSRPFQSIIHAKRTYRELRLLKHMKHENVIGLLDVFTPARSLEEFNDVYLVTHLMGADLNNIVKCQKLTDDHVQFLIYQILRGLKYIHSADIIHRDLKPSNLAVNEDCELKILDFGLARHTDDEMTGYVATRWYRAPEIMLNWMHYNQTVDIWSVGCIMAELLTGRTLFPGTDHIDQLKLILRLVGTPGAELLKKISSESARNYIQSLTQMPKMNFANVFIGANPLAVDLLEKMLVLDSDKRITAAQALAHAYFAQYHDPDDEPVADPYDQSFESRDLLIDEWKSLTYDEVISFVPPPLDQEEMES

IC50 [µM] | SMILES
< 10 | CCC(C)NC(=O)c1ccc(-c2cc(C(=O)NC3CC3)cc(F)c2C)nc1 (stereo not drawn)
< 10 | Cc1c(F)cc(C(=O)NC2CC2)cc1-c1ccc(C(=O)NC2CC2(C)C)cn1 (stereo not drawn)
< 10 | Cc1c(F)cc(C(=O)NC2CC2)cc1-c1ccc(C(=O)NCc2ccc(Cl)cc2F)cn1
< 10 | C/C=C/C(C)(C)NC(=O)c1ccc(-c2cc(C(=O)NC3CC3)cc(F)c2C)nc1
< 10 | Cc1c(F)cc(C(=O)NC2CC2)cc1-c1ccc(C(=O)NC2CCCC2)cn1
< 10 | Cc1ccc(NC(=O)c2ccnc(N3CCCC3)c2)cc1-c1ccc(C(=O)NCC2CC2)cn1
< 10 | COc1cccc(CNC(=O)c2ccc(-c3cc(C(=O)NC4CC4)ccc3C)nc2)c1
< 10 | CCC1CC1CNC(=O)c1ccc(-c2cc(C(=O)NC3CC3)cc(F)c2C)nc1 (stereo not drawn)
< 10 | Cc1c(F)cc(C(=O)NC2CC2)cc1-c1ccc(C(=O)NCc2cc(F)c(F)c(F)c2)cn1
< 10 | Cc1ccc(NC(=O)c2ccsc2)cc1-c1ccc(C(=O)Nc2ccccc2CN2CCN(C)CC2)cn1
< 10 | Cc1c(F)cc(C(=O)NC2CC2)cc1-c1ccc(C(=O)N2CCCC(C)C2)cn1 (stereo not drawn)
< 10 | Cc1c(F)cc(C(=O)NC2CC2)cc1-c1ccc(C(=O)NC2CCC2)cn1
< 10 | Cc1cccc(CNC(=O)c2ccc(-c3cc(C(=O)NC4CC4)cc(F)c3C)nc2)c1
< 10 | Cc1c(F)cc(C(=O)NC2CC2)cc1-c1ccc(C(=O)NCc2cc(Cl)ccc2F)cn1
< 10 | Cc1c(F)cc(C(=O)NC2CC2)cc1-c1ccc(C(=O)NCC(C)C(F)(F)F)cn1 (stereo not drawn)
< 10 | Cc1c(F)cc(C(=O)NC2CC2)cc1-c1ccc(C(=O)NC(C)Cc2nccs2)cn1 (stereo not drawn)
< 10 | Cc1c(F)cc(C(=O)NC2CC2)cc1-c1ccc(C(=O)NCc2nccs2)cn1
< 10 | CCC1CCCCN1C(=O)c1ccc(-c2cc(C(=O)NC3CC3)cc(F)c2C)nc1 (stereo not drawn)
< 10 | Cc1c(F)cc(C(=O)NC2CC2)cc1-c1ccc(C(=O)NCC2CCC2)cn1
< 10 | Cc1c(F)cc(C(=O)NC2CC2)cc1-c1ccc(C(=O)NCc2cc(F)ccc2F)cn1
< 10 | Cc1c(F)cc(C(=O)NC2CC2)cc1-c1ccc(C(=O)NCCC(C)(C)C)cn1
< 10 | CCCNC(=O)c1ccc(-c2cc(C(=O)NC3CC3)cc(F)c2C)nc1
< 10 | Cc1cccc(NC(=O)c2ccc(-c3cc(C(=O)NC4CC4)cc(F)c3C)nc2)c1
< 10 | CCNC(=O)c1ccc(-c2cc(C(=O)NC3CC3)cc(F)c2C)nc1
< 10 | Cc1c(F)cc(C(=O)NC2CC2)cc1-c1ccc(C(=O)NCc2ccccc2)cn1
< 10 | CCCC(O)C(C)NC(=O)c1ccc(-c2cc(C(=O)NC3CC3)cc(F)c2C)nc1 (stereo not drawn)

IC50 [µM] | SMILES
< 10 | Cc1c(F)cc(C(=O)NC2CC2)cc1-c1ccc(C(=O)NCc2ccc(C(F)(F)F)cc2)cn1
< 10 | Cc1c(F)cc(C(=O)NC2CC2)cc1-c1ccc(C(=O)NCCC(F)(F)F)cn1
< 10 | Cc1ccc(NC(=O)c2ccsc2)cc1-c1ccc(C(=O)NCC2CC2)cn1
< 10 | Cc1ccc(C(=O)Nc2nncs2)cc1-c1ccc(C(=O)NCC2CC2)cn1
< 10 | Cc1c(F)cc(C(=O)NC2CC2)cc1-c1ccc(C(=O)N2CCC(C)CC2)cn1
< 10 | Cc1c(F)cc(C(=O)NC2CC2)cc1-c1ccc(C(=O)NCc2ccc(F)c(Cl)c2)cn1
< 10 | Cc1c(F)cc(C(=O)NC2CC2)cc1-c1ccc(C(=O)NC(C)C2CC2)cn1 (stereo not drawn)
< 10 | Cc1ccc(C(=O)Nc2nncs2)cc1-c1ccc(C(=O)Nc2ccccc2CN2CCN(C)CC2)cn1
< 10 | CCN(C(=O)c1ccc(-c2cc(C(=O)NC3CC3)cc(F)c2C)nc1)C(C)C
< 10 | COc1cccc(NC(=O)c2ccc(-c3cc(C(=O)NC4CC4)cc(F)c3C)nc2)c1
< 10 | Cc1c(F)cc(C(=O)NC2CC2)cc1-c1ccc(C(=O)N(C)C(C)C)cn1
< 10 | COc1ccc(NC(=O)c2ccc(-c3cc(C(=O)NC4CC4)ccc3C)nc2)cc1
< 10 | Cc1c(F)cc(C(=O)NC2CC2)cc1-c1ccc(C(=O)NC2CC2)cn1
< 10 | Cc1c(F)cc(C(=O)NC2CC2)cc1-c1ccc(C(=O)NCc2ccc(F)c(F)c2)cn1
< 10 | CCCC(O)C(C)(C)NC(=O)c1ccc(-c2cc(C(=O)NC3CC3)cc(F)c2C)nc1 (stereo not drawn)
< 10 | Cc1c(F)cc(C(=O)NC2CC2)cc1-c1ccc(C(=O)NCc2ccc(F)c(F)c2F)cn1
< 10 | CCN(C(=O)c1ccc(-c2cc(C(=O)NC3CC3)cc(F)c2C)nc1)C1CCCCC1
< 10 | Cc1c(F)cc(C(=O)NC2CC2)cc1-c1ccc(C(=O)N(C)C2CCCC2)cn1
< 10 | Cc1c(F)cc(C(=O)NC2CC2)cc1-c1ccc(C(=O)NCc2ccccc2C(F)(F)F)cn1
< 10 | COc1ccc(NC(=O)c2ccc(-c3cc(C(=O)Nc4nccs4)ccc3C)nc2)cc1
< 10 | Cc1c(F)cc(C(=O)NC2CC2)cc1-c1ccc(C(=O)NCc2cccc(C(F)(F)F)c2)cn1
< 10 | Cc1ccc(NC(=O)c2ccsc2)cc1-c1ccc(C(=O)NCc2cccc(NS(C)(=O)=O)c2)cn1
< 10 | Cc1ccc(NC(=O)c2ccoc2)cc1-c1ccc(C(=O)NCC2CC2)cn1
< 10 | Cc1c(F)cc(C(=O)NC2CC2)cc1-c1ccc(C(=O)NCCOC(C)(C)C)cn1
< 10 | Cc1c(F)cc(C(=O)NC2CC2)cc1-c1ccc(C(=O)NCc2c(F)ccc(Cl)c2F)cn1
< 10 | Cc1ccc(C(=O)Nc2nccs2)cc1-c1ccc(C(=O)NCc2cccc(NS(C)(=O)=O)c2)cn1

The next lines start with the compound.

SMILES | IC50 [µM]
Cc1ccc(C(=O)NC2CC2)cc1-c1ccc(C(=O)NCc2cccc(NS(C)(=O)=O)c2)cn1 | < 10
Cc1c(F)cc(C(=O)NC2CC2)cc1-c1ccc(C(=O)N2CCCCC2C)cn1 (stereo not drawn) | < 10
Cc1c(F)cc(C(=O)NC2CC2)cc1-c1ccc(C(=O)NCc2ccc(F)cc2)cn1 | < 10
Cc1ccc(C(=O)Nc2nccs2)cc1-c1ccc(C(=O)Nc2ccccc2CN2CCN(C)CC2)cn1 | < 10
Cc1c(F)cc(C(=O)NC2CC2)cc1-c1ccc(C(=O)N(C)CC(C)C)cn1 | < 10
Cc1ccc(C(=O)NCC2CC2)cc1-c1ccc(C(=O)NCc2cccc(NS(C)(=O)=O)c2)cn1 | < 10
CCC1(C)CCCCN1C(=O)c1ccc(-c2cc(C(=O)NC3CC3)cc(F)c2C)nc1 (stereo not drawn) | < 10
Cc1c(F)cc(C(=O)NC2CC2)cc1-c1ccc(C(=O)NCCC(C)C)cn1 | < 10
Cc1c(F)cc(C(=O)NC2CC2)cc1-c1ccc(C(=O)NCc2ccccc2F)cn1 | < 10
CCC1(CC)CN(C(=O)c2ccc(-c3cc(C(=O)NC4CC4)cc(F)c3C)nc2)C1 | < 10
Cc1ccc(C(=O)Nc2cccc(-c3ccccn3)c2)cc1-c1ccc(C(=O)NCC2CC2)cn1 | < 10
COc1cccc(CNC(=O)c2ccc(-c3cc(C(=O)Nc4nncs4)ccc3C)nc2)c1 | < 10
COc1cccc(CNC(=O)c2ccc(-c3cc(C(=O)NCC4CC4)ccc3C)nc2)c1 | < 10
Cc1c(F)cc(C(=O)NC2CC2)cc1-c1ccc(C(=O)N2CCCC(C)(C)C2)cn1 | < 10
Cc1c(F)cc(C(=O)NC2CC2)cc1-c1ccc(C(=O)N2CCCC(C)C2C)cn1 (stereo not drawn) | < 10
Cc1c(F)cc(C(=O)NC2CC2)cc1-c1ccc(C(=O)NCCc2ccccc2)cn1 | < 10
Cc1c(F)cc(C(=O)NC2CC2)cc1-c1ccc(C(=O)N(C)C2(C)CCCC2)cn1 | < 10
Cc1ccc(CNC(=O)c2ccc(-c3cc(C(=O)NC4CC4)cc(F)c3C)nc2)c(F)c1F | < 10
Cc1c(F)cc(C(=O)NC2CC2)cc1-c1ccc(C(=O)NCc2cccc(F)c2F)cn1 | < 10
Cc1ccccc1CNC(=O)c1ccc(-c2cc(C(=O)NC3CC3)cc(F)c2C)nc1 | < 10
Cc1c(F)cc(C(=O)NC2CC2)cc1-c1ccc(C(=O)N2CCC(C)C2(C)C)cn1 (stereo not drawn) | < 10
COCCNC(=O)c1ccc(-c2cc(C(=O)NC3CC3)cc(F)c2C)nc1 | < 10
Cc1ccc(CNC(=O)c2ccc(-c3cc(C(=O)NC4CC4)cc(F)c3C)nc2)cc1F | < 10

SMILES | IC50 [µM]
CCCC(C)(C)NC(=O)c1ccc(-c2cc(C(=O)NC3CC3)cc(F)c2C)nc1 | < 10
Cc1c(F)cc(C(=O)NC2CC2)cc1-c1ccc(C(=O)NCc2ccc(F)cc2F)cn1 | < 10
Cc1c(F)cc(C(=O)NC2CC2)cc1-c1ccc(C(=O)N(C)CCC2CCCC2)cn1 | < 10
Cc1csc(CNC(=O)c2ccc(-c3cc(C(=O)NC4CC4)cc(F)c3C)nc2)n1 | < 10
Cc1ccc(F)cc1CNC(=O)c1ccc(-c2cc(C(=O)NC3CC3)cc(F)c2C)nc1 | < 10
COc1ccc(NC(=O)c2ccc(-c3cc(C(=O)Nc4nncs4)ccc3C)nc2)cc1 | < 10
Cc1c(F)cc(C(=O)NC2CC2)cc1-c1ccc(C(=O)NCCc2nccs2)cn1 | < 10
Cc1c(F)cc(C(=O)NC2CC2)cc1-c1ccc(C(=O)NCC2CCCCC2)cn1 | < 10
Cc1ccc(C(=O)NC2CC2)cc1-c1ccc(C(=O)Nc2ccccc2CN2CCN(C)CC2)cn1 | < 10
Cc1ccc(NC(=O)c2ccoc2)cc1-c1ccc(C(=O)Nc2ccccc2CN2CCN(C)CC2)cn1 | < 10
Cc1c(F)cc(C(=O)NC2CC2)cc1-c1ccc(C(=O)NCc2cc(F)c(F)cc2F)cn1 | < 10
Cc1c(F)cc(C(=O)NC2CC2)cc1-c1ccc(C(=O)NCc2cc(F)cc(F)c2F)cn1 | < 10
Cc1ccc(C(=O)Nc2nccs2)cc1-c1ccc(C(=O)NCC2CC2)cn1 | < 10
Cc1c(F)cc(C(=O)NC2CC2)cc1-c1ccc(C(=O)NCc2cccc(F)c2)cn1 | < 10
Cc1c(F)cc(C(=O)NC2CC2)cc1-c1ccc(C(=O)NCC(F)c2ccccc2)cn1 (stereo not drawn) | < 10
Cc1c(F)cc(C(=O)NC2CC2)cc1-c1ccc(C(=O)N2CCC(C)CC2C)cn1 (stereo not drawn) | < 10
Cc1c(F)cc(C(=O)NC2CC2)cc1-c1ccc(C(=O)NC(C)CC(C)C)cn1 (stereo not drawn) | < 10
Cc1c(F)cc(C(=O)NC2CC2)cc1-c1ccc(C(=O)NCc2cccc(Cl)c2)cn1 | < 10
COC(C)(C)CNC(=O)c1ccc(-c2cc(C(=O)NC3CC3)cc(F)c2C)nc1 | < 10
COc1cccc(CNC(=O)c2ccc(-c3cc(NC(=O)c4ccoc4)ccc3C)nc2)c1 | < 10
Cc1c(F)cc(C(=O)NC2CC2)cc1-c1ccc(C(=O)NCc2ccccc2Cl)cn1 | < 10
COc1ccc(NC(=O)c2ccc(-c3cc(C(=O)NCC4CC4)ccc3C)nc2)cc1 | < 10
CCCC1CCCCN1C(=O)c1ccc(-c2cc(C(=O)NC3CC3)cc(F)c2C)nc1 (stereo not drawn) | < 10
